Here are results for 22 molecules from PubChem BioAssay AID434987 (Southern Research Specialized Biocontainment Screening …, 2010).

Calls of active or inactive are those of the source. The rule behind the calls is not given here.

In this assay the test system is M. tuberculosis H37Rv growth inhibition with meropenem. In words: dose response, H37Rv, with and without meropenem (AID 434987).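 Note: growth over 7 days at 37 °C before Alamar Blue read on day 9.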
[1] abbreviates: M. tuberculosis H37Rv growth inhibition, measured here: IC50 without meropenem.
[2] abbreviates: M. tuberculosis H37Rv growth inhibition, measured here: IC90 without meropenem.
[3] abbreviates: measured here: IC90 with meropenem.

In the case of `CCc1ccc(NC(=O)c2c(Cl)nc(C)c(Cl)c2C)cc1`, the half-inhibitory concentration (IC50) (in general, the concentration at which inhibition is half-maximal) was 7.1 µM. This molecule registered an IC50 under setting [1] of over 100 µM. The IC90 (usually the point of the concentration-response curve where the effect stands at 90%) under setting [2] is over 100 µM. For the same molecule, the concentration for an effect of 90% (IC90) under setting [3] is over 100 µM.
With `Nc1n[nH]c(N)c1N=Nc1cccc(F)c1`, the IC50 is > 100 µM (inactive). This molecule had an IC50 under setting [1] of over 100 µM. Under setting [2], this molecule returned an IC90 of over 100 µM. The IC90 under setting [3] is over 100 µM.
As for `CCOC(=O)N1CCC(N2CCN(S(=O)(=O)c3ccc(Cl)cc3)CC2)CC1`, the IC50 is > 100 µM (inactive). Also, the 50% inhibitory concentration (IC50) under setting [1] is over 100 µM. In addition, the IC90 under setting [2] is over 100 µM. The molecule further gave a concentration for an effect of 90% (IC90) under setting [3] of over 100 µM.
As to `Cc1nn(-c2ccccc2)cc1/C=N/NC(N)=S`, the half-maximal inhibitory concentration (IC50) was 3.7 µM. Also, the IC50 under setting [1] is over 100 µM. The same molecule came in with an IC90 under setting [2] of over 100 µM. The IC90 under setting [3] was over 100 µM.
As to `CSc1ccccc1C(=O)Nc1cccc([N+](=O)[O-])c1C`, the IC50 is > 100 µM (inactive). The molecule also came in with a concentration for half-maximal inhibition (IC50) under setting [1] of over 100 µM. In addition, the IC90 under setting [2] is over 100 µM. The same molecule displayed an IC90 under setting [3] of over 100 µM.
With `C=CCn1cc(C(=O)NCCCOC)c(=O)c2cc(S(=O)(=O)N(CC)CC)ccc21`, the IC50 was 99.9 µM (inactive). Moreover, the 50% inhibitory concentration (IC50) under setting [1] was over 100 µM. This molecule had an IC90 under setting [2] of over 100 µM. Under setting [3], this molecule came in with a concentration for an effect of 90% (IC90) of over 100 µM.
`C/C(=N\NC(=O)c1cccc(Cl)c1)c1cccc(NC(=O)C(C)C)c1`: the IC50 is > 100 µM (inactive). Under setting [1], this molecule gave an IC50 of over 100 µM. The molecule also returned a concentration for an effect of 90% (IC90) under setting [2] of over 100 µM. Under setting [3], the IC90 is over 100 µM.
On to `O=C(Nc1ccc(F)cc1)c1sc2cc(C(F)(F)F)cnc2c1-c1cccs1`, for which the IC50 is > 100 µM (inactive). The molecule also had an IC50 under setting [1] of over 100 µM. Under setting [2], this molecule came in with an IC90 of over 100 µM. This molecule showed a concentration for an effect of 90% (IC90) under setting [3] of over 100 µM.
For `O=c1oc(CCCO)cc2ccc(C#Cc3ccsc3)cc12`, the IC50 is > 100 µM (inactive). The half-maximal inhibitory concentration (IC50) under setting [1] was over 100 µM. The IC90 under setting [2] is over 100 µM. The concentration for an effect of 90% (IC90) under setting [3] is over 100 µM.
Turning to `Cc1cccc(NC(=O)Cn2c(=O)n(Cc3ccccc3)c(=O)c3c(C)c(C)sc32)c1`, the IC50 was > 100 µM (inactive). Under setting [1], this molecule showed an IC50 of over 100 µM. The molecule further yielded an IC90 under setting [2] of over 100 µM. This molecule yielded an IC90 under setting [3] of over 100 µM.
Take `CCOc1ccc(N=c2cc(-c3ccc(OC)cc3)oc3ccccc23)cc1`: the IC50 is 45.2 µM (inactive). This molecule showed a concentration for half-maximal inhibition (IC50) under setting [1] of 40.1 µM. For the same molecule, under setting [2], the IC90 worked out at 44.4 µM. Moreover, the IC90 under setting [3] amounted to 50.3 µM.
For `C[C@H](NC(=O)c1[nH]cnc1C(=O)Nc1ccc(Cl)cc1)C(=O)OC(C)(C)C`, the half-inhibitory concentration (IC50) was 10.4 µM. This molecule showed a half-inhibitory concentration (IC50) under setting [1] of over 100 µM. Under setting [2], this molecule registered a 90% effect concentration (IC90) of over 100 µM. Under setting [3], this molecule gave a 90% effect concentration (IC90) of over 100 µM.
`O=C1OC(/C=C/c2ccc(Cl)cc2Cl)=NC/1=C\c1cccs1`: the concentration for half-maximal inhibition (IC50) is 4.04 µM. Besides, under setting [1], the 50% inhibitory concentration (IC50) was 14.7 µM. Under setting [2], this molecule showed a 90% effect concentration (IC90) of 60.1 µM. Besides, under setting [3], the 90% effect concentration (IC90) amounted to 33.4 µM.
Taken in the same sequence, the figures for `O=C(Nc1ccccc1Cl)c1csc(-c2cccnc2)n1` were 23.9 µM, 82.3 µM, over 100 µM and over 100 µM.
For `CCOC(=O)c1ccc(N2CN(C3CCCCC3)CNC2=S)cc1`, the concentration for half-maximal inhibition (IC50) was 35.4 µM. This molecule also registered a concentration for half-maximal inhibition (IC50) under setting [1] of over 100 µM. Under setting [2], the 90% effect concentration (IC90) is over 100 µM. Besides, under setting [3], the concentration for an effect of 90% (IC90) was over 100 µM.
On to `COc1ccc(NCC(=O)N/N=C/C(C)c2ccccc2)cc1` (stereo not drawn), for which the IC50 is > 100 µM (inactive). The molecule further displayed a half-inhibitory concentration (IC50) under setting [1] of over 100 µM. Under setting [2], this molecule gave an IC90 of over 100 µM. This molecule also registered an IC90 under setting [3] of over 100 µM.
With `Cc1ccc(NC(=O)O/N=C/c2c(C)nn(C(C)(C)C)c2C)cc1Cl`, the IC50 is > 100 µM (inactive). Under setting [1], this molecule returned an IC50 of over 100 µM. Besides, under setting [2], the concentration for an effect of 90% (IC90) was over 100 µM. The molecule also registered an IC90 under setting [3] of over 100 µM.
Regarding `COC(=O)c1c(C)n(-c2ccc(C)cc2)c2ccc(O)cc12`, the IC50 was > 100 µM (inactive). Moreover, the IC50 under setting [1] was over 100 µM. This molecule also displayed an IC90 under setting [2] of over 100 µM. Further, the IC90 under setting [3] is over 100 µM.
`COc1cccc(/C=N/NC(N)=S)c1OS(=O)(=O)c1ccccc1`: the IC50 is 19.2 µM. The same molecule displayed a half-inhibitory concentration (IC50) under setting [1] of over 100 µM. Moreover, under setting [2], the IC90 is over 100 µM. Moreover, under setting [3], the 90% effect concentration (IC90) is over 25 µM.
As for `COC(=O)c1c(NC(=O)c2ccc(C)cc2)csc1C`, the IC50 is 48.9 µM (inactive). Under setting [1], this molecule returned an IC50 of 84 µM. Also, under setting [2], the concentration for an effect of 90% (IC90) was over 100 µM. The concentration for an effect of 90% (IC90) under setting [3] was over 100 µM.
Take `Cc1ccc(C(=O)Nc2nc3ccccc3s2)s1`: the IC50 was 43.6 µM (inactive). Also, the IC50 under setting [1] is over 100 µM. This molecule also came in with a concentration for an effect of 90% (IC90) under setting [2] of over 100 µM. Under setting [3], this molecule showed an IC90 of over 100 µM.
Regarding `CC(C)Oc1ccc(N2CC(C(=O)Nc3ccccc3F)CC2=O)cc1` (stereo not drawn), the IC50 was 56.8 µM (inactive). Under setting [1], this molecule returned an IC50 of over 100 µM. The molecule also yielded a concentration for an effect of 90% (IC90) under setting [2] of over 100 µM. This molecule also registered an IC90 under setting [3] of over 100 µM.
